The test system of experiment [1] is human lung cancer strain NCI-H441.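 Note: cell proliferation inhibition after four days measured by CellTiter-Glo.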
Experiment [2] has as its target GDP-bound KRAS wild-type protein (Homo sapiens, UniProt P01116). The experiment is described as follows: Binding to KRAS by surface plasmon resonance (SPR), Single Cycle Kinetics. The note with it: SPR, Single Cycle Kinetics, 1:1 binding model; GDP-bound KRAS wild-type protein; read-out: KRAS KD. (In SPR one partner is held on a chip, and binding of the other changes the refractive index at the surface.)

In experiment [3] the target is GDP-bound NRAS wild-type protein (Homo sapiens, UniProt P01111). The experiment can be described thus: Binding to NRAS by surface plasmon resonance (SPR), Single Cycle Kinetics. The note with it: SPR; GDP-bound NRAS wild-type protein vs GDP-bound KRAS wild-type protein; KD ratio class.
Sequence of GDP-bound NRAS wild-type protein (P01111 whole entry): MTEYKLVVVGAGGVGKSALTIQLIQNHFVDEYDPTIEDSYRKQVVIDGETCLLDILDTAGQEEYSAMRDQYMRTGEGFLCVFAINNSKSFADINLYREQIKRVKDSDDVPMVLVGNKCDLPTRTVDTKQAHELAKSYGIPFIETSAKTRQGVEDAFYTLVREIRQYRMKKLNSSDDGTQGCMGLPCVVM
The target in experiment [4] is GDP-bound HRAS wild-type protein (Homo sapiens, UniProt P01112). The experiment can be described thus: Binding to HRAS by surface plasmon resonance (SPR), Single Cycle Kinetics. To be noted: SPR; GDP-bound HRAS wild-type protein vs GDP-bound KRAS wild-type protein; KD ratio class.
Sequence of GDP-bound HRAS wild-type protein (P01112 whole entry): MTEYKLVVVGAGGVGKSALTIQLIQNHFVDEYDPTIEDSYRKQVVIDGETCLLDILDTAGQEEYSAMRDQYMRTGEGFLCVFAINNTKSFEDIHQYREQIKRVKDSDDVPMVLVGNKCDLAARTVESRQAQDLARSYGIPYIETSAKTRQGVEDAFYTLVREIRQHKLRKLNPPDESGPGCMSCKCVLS

SMILES strings stand for the structures. pIC50, pKd: −log10 of the molar value.

Sequence of GDP-bound KRAS wild-type protein (P01116 whole entry): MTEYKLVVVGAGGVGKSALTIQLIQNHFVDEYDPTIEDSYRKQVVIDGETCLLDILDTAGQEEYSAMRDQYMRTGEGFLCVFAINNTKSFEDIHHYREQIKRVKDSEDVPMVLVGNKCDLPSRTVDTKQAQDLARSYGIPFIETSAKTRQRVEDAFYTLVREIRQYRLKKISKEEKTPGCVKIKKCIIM

As for `CC[C@H](C)[C@@H]1NC(=O)[C@H](CC)N(C)C(=O)C[C@@H](C(=O)N(C)C)N(C)C(=O)[C@H](C2CCCC2)N(C)C(=O)C2(CCC2)NC(=O)[C@@H]2C[C@H](C)CN2C(=O)[C@H](CCc2cc(F)c(C(F)(F)F)c(F)c2)NC(=O)CN(C)C(=O)[C@H](CC2CCC(F)(F)CC2)N2CC/C=C\C[C@@H](C2=O)N(C)C(=O)CN(C)C1=O` [PP1457, (2S,8S,12S,14S,20S,23S,27S,30S,36S,38Z)-20-cyclopentyl-2-[(4,4-difluorocyclohexyl)methyl]-8-[2-[3,5-difluoro-4-(trifluoromethyl)phenyl]ethyl]-27-ethyl-N,N,4,12,19,22,26,32,35-nonamethyl-30-[(1S)-1-methylpropyl]-3,6,9,15,18,21,25,28,31,34,42-undecaoxo-spiro[1,4,7,10,16,19,22,26,29,32,35-undecazatricyclo[34.5.1.0^10,14]dotetracont-38-ene-17,1′-cyclobutane]-23-carboxamide], the pIC50 (commonly −log10 of the IC50, conventionally taken in molar units) in experiment [1] was 7.52. In experiment [2], the pKd (usually the Kd on a negative log10 scale, so that one unit is a factor of ten) is 9.82. Moreover, the “NRAS/KRAS (ratio of KD value for NRAS to KD value for KRAS)” value in experiment [3] was “A (a compound having 10 or more and less than 20 is denoted as A)”. Moreover, in experiment [4], the “HRAS/KRAS (ratio of KD value for HRAS to KD value for KRAS)” value is “A (a compound having 10 or more and less than 20 is denoted as A)”.

In the case of `CCO[C@@H]1C[C@H]2C(=O)NC3(CCC3)C(=O)N(C)[C@@H](C3CCCC3)C(=O)N(C)[C@H](C(=O)N(C)C)CC(=O)N(C)[C@@H](CC3CCCC3)C(=O)N[C@@H]([C@@H](C)CC)C(=O)N(C)CC(=O)N(C)[C@H]3C/C=C\CCN(C3=O)[C@@H](CC3CCC(F)(F)CC3)C(=O)N(C)CC(=O)N[C@@H](CCc3cc(F)c(C(F)(F)F)c(F)c3)C(=O)N2C1` [PP1458], the pIC50 in experiment [1] is 7.74. Besides, in experiment [2], the pKd is 9.82. In addition, the “NRAS/KRAS (ratio of KD value for NRAS to KD value for KRAS)” value in experiment [3] was “A (a compound having 10 or more and less than 20 is denoted as A)”. Further, the “HRAS/KRAS (ratio of KD value for HRAS to KD value for KRAS)” value in experiment [4] was “A (a compound having 10 or more and less than 20 is denoted as A)”.

`CCO[C@@H]1C[C@H]2C(=O)NC3(CCCC3)C(=O)N(C)[C@@H](C3CCCC3)C(=O)N(C)[C@H](C(=O)N(C)C)CC(=O)N(C)[C@@H](CC(C)C)C(=O)N[C@@H]([C@@H](C)CC)C(=O)N(C)CC(=O)N(C)[C@H]3C/C=C\CCN(C3=O)[C@@H](CC3CCC(F)(F)CC3)C(=O)N(C)CC(=O)N[C@@H](CCc3cc(F)c(C(F)(F)F)c(F)c3)C(=O)N2C1` [PP1459]: the negative-log IC50 (pIC50) in experiment [1] is 7.41. Also, the pKd in experiment [2] is 9.70. For the same compound, the “NRAS/KRAS (ratio of KD value for NRAS to KD value for KRAS)” value in experiment [3] is “A (a compound having 10 or more and less than 20 is denoted as A)”. Moreover, the “HRAS/KRAS (ratio of KD value for HRAS to KD value for KRAS)” value in experiment [4] was “A (a compound having 10 or more and less than 20 is denoted as A)”.

As for `CCO[C@@H]1C[C@H]2C(=O)NC3(CCC3)C(=O)N(C)[C@@H](C3CCCC3)C(=O)N(C)[C@H](C(=O)N(C)C)CC(=O)N(C)[C@@H](CC(C)(C)C)C(=O)N[C@@H]([C@@H](C)CC)C(=O)N(C)CC(=O)N(C)[C@H]3C/C=C\CCN(C3=O)[C@@H](CC3CCC(F)(F)CC3)C(=O)N(C)CC(=O)N[C@@H](CCc3cc(F)c(C(F)(F)F)c(F)c3)C(=O)N2C1` [PP1460], the pIC50 in experiment [1] was 7.48. Also, the negative logarithm of the Kd (pKd) in experiment [2] was 9.64. Further, the “NRAS/KRAS (ratio of KD value for NRAS to KD value for KRAS)” value in experiment [3] was “A (a compound having 10 or more and less than 20 is denoted as A)”. The “HRAS/KRAS (ratio of KD value for HRAS to KD value for KRAS)” value in experiment [4] is “A (a compound having 10 or more and less than 20 is denoted as A)”.

In experiment [1], `CC[C@H](C)[C@@H]1NC(=O)[C@H](CC)N(C)C(=O)C[C@@H](C(=O)N(C)C)N(C)C(=O)[C@H](C2CCCC2)N(C)C(=O)C2(CCC2)NC(=O)[C@@H]2CCCN2C(=O)[C@H](CCc2cc(F)c(C(F)(F)F)c(F)c2)NC(=O)CN(C)C(=O)[C@H](CC2CCC(F)(F)CC2)N2CC/C=C\C[C@@H](C2=O)N(C)C(=O)CN(C)C1=O` [PP1461] had a negative-log IC50 (pIC50) of 6.92. In experiment [2], the pKd was 9.57. The “NRAS/KRAS (ratio of KD value for NRAS to KD value for KRAS)” value in experiment [3] is “A (a compound having 10 or more and less than 20 is denoted as A)”. For the same compound, the “HRAS/KRAS (ratio of KD value for HRAS to KD value for KRAS)” value in experiment [4] is “A (a compound having 10 or more and less than 20 is denoted as A)”.

In the case of `CC[C@H](C)[C@@H]1NC(=O)[C@H](CC)N(C)C(=O)C[C@@H](C(=O)N(C)C)N(C)C(=O)[C@H](C2CCCC2)N(C)C(=O)C2(CCC2)NC(=O)[C@@H]2CC(F)(F)CN2C(=O)[C@H](CCc2cc(F)c(C(F)(F)F)c(F)c2)NC(=O)CN(C)C(=O)[C@H](CC2CCCCC2)N2CC/C=C\C[C@@H](C2=O)N(C)C(=O)CN(C)C1=O` [PP1462, (2S,8S,14S,20S,23S,27S,30S,36S,38Z)-2-(cyclohexylmethyl)-20-cyclopentyl-8-[2-[3,5-difluoro-4-(trifluoromethyl)phenyl]ethyl]-27-ethyl-12,12-difluoro-N,N,4,19,22,26,32,35-octamethyl-30-[(1S)-1-methylpropyl]-3,6,9,15,18,21,25,28,31,34,42-undecaoxo-spiro[1,4,7,10,16,19,22,26,29,32,35-undecazatricyclo[34.5.1.0^10,14]dotetracont-38-ene-17,1′-cyclobutane]-23-carboxamide], the pIC50 in experiment [1] is 7.56. For the same compound, in experiment [2], the pKd is 9.92. Besides, in experiment [3], the “NRAS/KRAS (ratio of KD value for NRAS to KD value for KRAS)” value was “A (a compound having 10 or more and less than 20 is denoted as A)”. In addition, the “HRAS/KRAS (ratio of KD value for HRAS to KD value for KRAS)” value in experiment [4] was “A (a compound having 10 or more and less than 20 is denoted as A)”.

`CCO[C@@H]1C[C@H]2C(=O)NC3(CCC3)C(=O)N(C)[C@@H](C3CCCC3)C(=O)N(C)[C@H](C(=O)N(C)C)CC(=O)N(C)[C@@H](CSC)C(=O)N[C@@H]([C@@H](C)CC)C(=O)N(C)CC(=O)N(C)[C@H]3C/C=C\CCN(C3=O)[C@@H](CC3CCCCC3)C(=O)N(C)CC(=O)N[C@@H](CCc3cc(F)c(C(F)(F)F)c(F)c3)C(=O)N2C1` [PP1463, (2S,8S,12R,14S,20S,23S,27R,30S,36S,38Z)-2-(cyclohexylmethyl)-20-cyclopentyl-8-[2-[3,5-difluoro-4-(trifluoromethyl)phenyl]ethyl]-12-ethoxy-N,N,4,19,22,26,32,35-octamethyl-30-[(1S)-1-methylpropyl]-27-(methylsulfanylmethyl)-3,6,9,15,18,21,25,28,31,34,42-undecaoxo-spiro[1,4,7,10,16,19,22,26,29,32,35-undecazatricyclo[34.5.1.0^10,14]dotetracont-38-ene-17,1′-cyclobutane]-23-carboxamide] had a pIC50 in experiment [1] of 7.35. In addition, in experiment [2], the pKd was 9.89. Further, the “NRAS/KRAS (ratio of KD value for NRAS to KD value for KRAS)” value in experiment [3] was “A (a compound having 10 or more and less than 20 is denoted as A)”. In addition, the “HRAS/KRAS (ratio of KD value for HRAS to KD value for KRAS)” value in experiment [4] is “A (a compound having 10 or more and less than 20 is denoted as A)”.

As to `CCC[C@H]1C(=O)N[C@@H]([C@@H](C)CC)C(=O)N(C)CC(=O)N(C)[C@H]2C/C=C\CCN(C2=O)[C@@H](CC2CCCCC2)C(=O)N(C)CC(=O)N[C@@H](CCc2cc(F)c(C(F)(F)F)c(F)c2)C(=O)N2C[C@H](OCC)C[C@H]2C(=O)NC2(CCC2)C(=O)N(C)[C@@H](C2CCCC2)C(=O)N(C)[C@H](C(=O)N(C)C)CC(=O)N1C` [PP1464], the pIC50 in experiment [1] was 7.49. Besides, the pKd in experiment [2] is 9.82. Besides, in experiment [3], the “NRAS/KRAS (ratio of KD value for NRAS to KD value for KRAS)” value was “A (a compound having 10 or more and less than 20 is denoted as A)”. In experiment [4], the “HRAS/KRAS (ratio of KD value for HRAS to KD value for KRAS)” value is “A (a compound having 10 or more and less than 20 is denoted as A)”.

Turning to `CC[C@H](C)[C@@H]1NC(=O)[C@H](CC)N(C)C(=O)C[C@@H](C(=O)N(C)C)N(C)C(=O)[C@H](C2CCCC2)N(C)C(=O)C2(CCC2)NC(=O)[C@@H]2C[C@@H](C(F)(F)F)CN2C(=O)[C@H](CCc2cc(F)c(C(F)(F)F)c(F)c2)NC(=O)CN(C)C(=O)[C@H](CC2CCCCC2)N2CC/C=C\C[C@@H](C2=O)N(C)C(=O)CN(C)C1=O` [PP1465], in experiment [1], the pIC50 is 7.47. Also, the pKd in experiment [2] is 9.44. Besides, in experiment [3], the “NRAS/KRAS (ratio of KD value for NRAS to KD value for KRAS)” value is “A (a compound having 10 or more and less than 20 is denoted as A)”. Moreover, the “HRAS/KRAS (ratio of KD value for HRAS to KD value for KRAS)” value in experiment [4] was “A (a compound having 10 or more and less than 20 is denoted as A)”.

In the case of `CCO[C@@H]1C[C@H]2C(=O)NC3(CCC3)C(=O)N(C)[C@@H](C3CCCC3)C(=O)N(C)[C@H](C(=O)N(C)C)CC(=O)N(C)[C@@H](CC)C(=O)N[C@@H]([C@@H](C)CC)C(=O)N(C)CC(=O)N(C)[C@H]3C/C=C\CCN(C3=O)[C@@H](CC3CCCCC3)C(=O)N(C)CC(=O)N[C@@H](CCc3cc(F)c(C(F)(F)F)c(F)c3)C(=O)N2C1` [PP1466, (2S,8S,12R,14S,20S,23S,27S,30S,36S,38Z)-2-(cyclohexylmethyl)-20-cyclopentyl-8-[2-[3,5-difluoro-4-(trifluoromethyl)phenyl]ethyl]-12-ethoxy-27-ethyl-N,N,4,19,22,26,32,35-octamethyl-30-[(1S)-1-methylpropyl]-3,6,9,15,18,21,25,28,31,34,42-undecaoxo-spiro[1,4,7,10,16,19,22,26,29,32,35-undecazatricyclo[34.5.1.0^10,14]dotetracont-38-ene-17,1′-cyclobutane]-23-carboxamide], in experiment [1], the pIC50 is 7.48. Moreover, in experiment [2], the negative-log Kd (pKd) is 9.85. Besides, the “NRAS/KRAS (ratio of KD value for NRAS to KD value for KRAS)” value in experiment [3] was “A (a compound having 10 or more and less than 20 is denoted as A)”. Further, the “HRAS/KRAS (ratio of KD value for HRAS to KD value for KRAS)” value in experiment [4] was “A (a compound having 10 or more and less than 20 is denoted as A)”.
